Assay results as given in ChEMBL document CHEMBL5303573, “Mapping human microbiome drug metabolism by gut bacteria and their genes” (Nature, 2019).

Test: The drug is tested on Bifidobacterium longum subsp. Infantis strain: CCUG52486 for biotransformation. The drug concentrations were measured before and after a 12-h incubation by liquid-chromatography-coupled mass spectrometry (LC–MS)
Conditions: 2 µM
For `CNC(=C[N+](=O)[O-])NCCSCc1csc(CN(C)C)n1` [NIZATIDINE], the “Bacterial Biotransformation” value was “Compound metabolized”. With `COc1ccc2c(c1OC)C(=O)O[C@@H]2[C@H]1c2c(cc3c(c2OC)OCO3)CCN1C` [NOSCAPINE] the “Bacterial Biotransformation” value was “Compound metabolized”. In the case of `NS(=O)(=O)c1cc2c(cc1Cl)N=C(CSCc1ccccc1)NS2(=O)=O` [BENZTHIAZIDE], the “Bacterial Biotransformation” value is reported as “Compound NOT metabolized”.

Test: The drug is tested on Collinsella aerofaciens strain: ATCC25986 for biotransformation. The drug concentrations were measured before and after a 12-h incubation by liquid-chromatography-coupled mass spectrometry (LC–MS)
Conditions: 2 µM
With `CNC(=C[N+](=O)[O-])NCCSCc1csc(CN(C)C)n1` [NIZATIDINE] the “Bacterial Biotransformation” value was “Compound metabolized”. With `COc1ccc2c(c1OC)C(=O)O[C@@H]2[C@H]1c2c(cc3c(c2OC)OCO3)CCN1C` [NOSCAPINE] the “Bacterial Biotransformation” value was “Compound metabolized”. In the case of `NS(=O)(=O)c1cc2c(cc1Cl)N=C(CSCc1ccccc1)NS2(=O)=O` [BENZTHIAZIDE], the “Bacterial Biotransformation” value is reported as “Compound NOT metabolized”.

Test: The drug is tested on Bacteroides caccae strain: ATCC43185 for biotransformation. The drug concentrations were measured before and after a 12-h incubation by liquid-chromatography-coupled mass spectrometry (LC–MS)
Conditions: 2 µM
For `CNC(=C[N+](=O)[O-])NCCSCc1csc(CN(C)C)n1` [NIZATIDINE], the “Bacterial Biotransformation” value was “Compound NOT metabolized”. For `COc1ccc2c(c1OC)C(=O)O[C@@H]2[C@H]1c2c(cc3c(c2OC)OCO3)CCN1C` [NOSCAPINE], the “Bacterial Biotransformation” value was “Compound NOT metabolized”. With `NS(=O)(=O)c1cc2c(cc1Cl)N=C(CSCc1ccccc1)NS2(=O)=O` [BENZTHIAZIDE] the “Bacterial Biotransformation” value was “Compound NOT metabolized”.

Test: The drug is tested on Bacteroides finegoldii strain: DSM17565 for biotransformation. The drug concentrations were measured before and after a 12-h incubation by liquid-chromatography-coupled mass spectrometry (LC–MS)
Conditions: 2 µM
For `CNC(=C[N+](=O)[O-])NCCSCc1csc(CN(C)C)n1` [NIZATIDINE], the “Bacterial Biotransformation” value was “Compound metabolized”. In the case of `COc1ccc2c(c1OC)C(=O)O[C@@H]2[C@H]1c2c(cc3c(c2OC)OCO3)CCN1C` [NOSCAPINE], the “Bacterial Biotransformation” value is reported as “Compound metabolized”.

Test: The drug is tested on Bacteroides fragilis strain: HMW615 for biotransformation. The drug concentrations were measured before and after a 12-h incubation by liquid-chromatography-coupled mass spectrometry (LC–MS)
Conditions: 2 µM
In the case of `CNC(=C[N+](=O)[O-])NCCSCc1csc(CN(C)C)n1` [NIZATIDINE], the “Bacterial Biotransformation” value is reported as “Compound metabolized”. With `COc1ccc2c(c1OC)C(=O)O[C@@H]2[C@H]1c2c(cc3c(c2OC)OCO3)CCN1C` [NOSCAPINE] the “Bacterial Biotransformation” value was “Compound NOT metabolized”. With `NS(=O)(=O)c1cc2c(cc1Cl)N=C(CSCc1ccccc1)NS2(=O)=O` [BENZTHIAZIDE] the “Bacterial Biotransformation” value was “Compound NOT metabolized”.

Test: The drug is tested on Bacteroides fragilis strain: ATCC43859 for biotransformation. The drug concentrations were measured before and after a 12-h incubation by liquid-chromatography-coupled mass spectrometry (LC–MS)
Conditions: 2 µM
For `CNC(=C[N+](=O)[O-])NCCSCc1csc(CN(C)C)n1` [NIZATIDINE], the “Bacterial Biotransformation” value was “Compound NOT metabolized”. For `COc1ccc2c(c1OC)C(=O)O[C@@H]2[C@H]1c2c(cc3c(c2OC)OCO3)CCN1C` [NOSCAPINE], the “Bacterial Biotransformation” value was “Compound NOT metabolized”. With `NS(=O)(=O)c1cc2c(cc1Cl)N=C(CSCc1ccccc1)NS2(=O)=O` [BENZTHIAZIDE] the “Bacterial Biotransformation” value was “Compound NOT metabolized”.

Test: The drug is tested on Bacteroides xylanisolvens strain: DSM18836 for biotransformation. The drug concentrations were measured before and after a 12-h incubation by liquid-chromatography-coupled mass spectrometry (LC–MS)
Conditions: 2 µM
For `CNC(=C[N+](=O)[O-])NCCSCc1csc(CN(C)C)n1` [NIZATIDINE], the “Bacterial Biotransformation” value was “Compound metabolized”. In the case of `COc1ccc2c(c1OC)C(=O)O[C@@H]2[C@H]1c2c(cc3c(c2OC)OCO3)CCN1C` [NOSCAPINE], the “Bacterial Biotransformation” value is reported as “Compound metabolized”.

Test: The drug is tested on Odoribacter splanchnicus strain: fecal isolate for biotransformation. The drug concentrations were measured before and after a 12-h incubation by liquid-chromatography-coupled mass spectrometry (LC–MS)
Conditions: 2 µM
With `COc1ccc2c(c1OC)C(=O)O[C@@H]2[C@H]1c2c(cc3c(c2OC)OCO3)CCN1C` [NOSCAPINE] the “Bacterial Biotransformation” value was “Compound metabolized”. For `NS(=O)(=O)c1cc2c(cc1Cl)N=C(CSCc1ccccc1)NS2(=O)=O` [BENZTHIAZIDE], the “Bacterial Biotransformation” value was “Compound NOT metabolized”.

Test: The drug is tested on Clostridium scindens strain: ATCC35704 for biotransformation. The drug concentrations were measured before and after a 12-h incubation by liquid-chromatography-coupled mass spectrometry (LC–MS)
Conditions: 2 µM
With `CNC(=C[N+](=O)[O-])NCCSCc1csc(CN(C)C)n1` [NIZATIDINE] the “Bacterial Biotransformation” value was “Compound metabolized”. In the case of `COc1ccc2c(c1OC)C(=O)O[C@@H]2[C@H]1c2c(cc3c(c2OC)OCO3)CCN1C` [NOSCAPINE], the “Bacterial Biotransformation” value is reported as “Compound metabolized”. For `NS(=O)(=O)c1cc2c(cc1Cl)N=C(CSCc1ccccc1)NS2(=O)=O` [BENZTHIAZIDE], the “Bacterial Biotransformation” value was “Compound NOT metabolized”.

Test: The drug is tested on Clostridium sporogenes strain: ATCC15579 for biotransformation. The drug concentrations were measured before and after a 12-h incubation by liquid-chromatography-coupled mass spectrometry (LC–MS)
Conditions: 2 µM
In the case of `CNC(=C[N+](=O)[O-])NCCSCc1csc(CN(C)C)n1` [NIZATIDINE], the “Bacterial Biotransformation” value is reported as “Compound NOT metabolized”. With `COc1ccc2c(c1OC)C(=O)O[C@@H]2[C@H]1c2c(cc3c(c2OC)OCO3)CCN1C` [NOSCAPINE] the “Bacterial Biotransformation” value was “Compound NOT metabolized”. In the case of `NS(=O)(=O)c1cc2c(cc1Cl)N=C(CSCc1ccccc1)NS2(=O)=O` [BENZTHIAZIDE], the “Bacterial Biotransformation” value is reported as “Compound NOT metabolized”.

Test: The drug is tested on Coprococcus comes strain: ATCC27758 for biotransformation. The drug concentrations were measured before and after a 12-h incubation by liquid-chromatography-coupled mass spectrometry (LC–MS)
Type: ADME
Parameters: dose 2 uM, timepoint 0 vs 12 hours
Conditions: 2 µM
In the case of `CNC(=C[N+](=O)[O-])NCCSCc1csc(CN(C)C)n1` [NIZATIDINE], the “Bacterial Biotransformation” value is reported as “Compound NOT metabolized”. For `COc1ccc2c(c1OC)C(=O)O[C@@H]2[C@H]1c2c(cc3c(c2OC)OCO3)CCN1C` [NOSCAPINE], the “Bacterial Biotransformation” value was “Compound metabolized”.

Test: The drug is tested on Eubacterium hallii strain: DSM3353 for biotransformation. The drug concentrations were measured before and after a 12-h incubation by liquid-chromatography-coupled mass spectrometry (LC–MS)
Conditions: anaerobutyricum hallii, 2 µM
In the case of `CNC(=C[N+](=O)[O-])NCCSCc1csc(CN(C)C)n1` [NIZATIDINE], the “Bacterial Biotransformation” value is reported as “Compound metabolized”. For `COc1ccc2c(c1OC)C(=O)O[C@@H]2[C@H]1c2c(cc3c(c2OC)OCO3)CCN1C` [NOSCAPINE], the “Bacterial Biotransformation” value was “Compound metabolized”. For `NS(=O)(=O)c1cc2c(cc1Cl)N=C(CSCc1ccccc1)NS2(=O)=O` [BENZTHIAZIDE], the “Bacterial Biotransformation” value was “Compound NOT metabolized”.

Test: The drug is tested on Ruminococcus lactaris strain: ATCC29176 for biotransformation. The drug concentrations were measured before and after a 12-h incubation by liquid-chromatography-coupled mass spectrometry (LC–MS)
Conditions: 2 µM
For `CNC(=C[N+](=O)[O-])NCCSCc1csc(CN(C)C)n1` [NIZATIDINE], the “Bacterial Biotransformation” value was “Compound metabolized”. For `COc1ccc2c(c1OC)C(=O)O[C@@H]2[C@H]1c2c(cc3c(c2OC)OCO3)CCN1C` [NOSCAPINE], the “Bacterial Biotransformation” value was “Compound metabolized”.

Test: The drug is tested on Enterobacter cancerogenus strain: ATCC35316 for biotransformation. The drug concentrations were measured before and after a 12-h incubation by liquid-chromatography-coupled mass spectrometry (LC–MS)
Conditions: 2 µM
With `CNC(=C[N+](=O)[O-])NCCSCc1csc(CN(C)C)n1` [NIZATIDINE] the “Bacterial Biotransformation” value was “Compound metabolized”. With `COc1ccc2c(c1OC)C(=O)O[C@@H]2[C@H]1c2c(cc3c(c2OC)OCO3)CCN1C` [NOSCAPINE] the “Bacterial Biotransformation” value was “Compound metabolized”. With `NS(=O)(=O)c1cc2c(cc1Cl)N=C(CSCc1ccccc1)NS2(=O)=O` [BENZTHIAZIDE] the “Bacterial Biotransformation” value was “Compound NOT metabolized”.

Test: The drug is tested on Providencia rettgeri strain: DSM1131 for biotransformation. The drug concentrations were measured before and after a 12-h incubation by liquid-chromatography-coupled mass spectrometry (LC–MS)
Type: ADME
Parameters: dose 2 uM, timepoint 0 vs 12 hours
Conditions: 2 µM
In the case of `CNC(=C[N+](=O)[O-])NCCSCc1csc(CN(C)C)n1` [NIZATIDINE], the “Bacterial Biotransformation” value is reported as “Compound NOT metabolized”. With `COc1ccc2c(c1OC)C(=O)O[C@@H]2[C@H]1c2c(cc3c(c2OC)OCO3)CCN1C` [NOSCAPINE] the “Bacterial Biotransformation” value was “Compound metabolized”. For `NS(=O)(=O)c1cc2c(cc1Cl)N=C(CSCc1ccccc1)NS2(=O)=O` [BENZTHIAZIDE], the “Bacterial Biotransformation” value was “Compound NOT metabolized”.

Conditions: bacteroides fragilis, 12 h, 2 µM
Description: The drug is tested on Bacteroides fragilis strain: 3397 (T10) for biotransformation. The drug concentrations were measured before and after a 12-h incubation by liquid-chromatography-coupled mass spectrometry (LC–MS)
For `CNC(=C[N+](=O)[O-])NCCSCc1csc(CN(C)C)n1` [NIZATIDINE], the “Bacterial Biotransformation” value was “Compound NOT metabolized”. In the case of `COc1ccc2c(c1OC)C(=O)O[C@@H]2[C@H]1c2c(cc3c(c2OC)OCO3)CCN1C` [NOSCAPINE], the “Bacterial Biotransformation” value is reported as “Compound NOT metabolized”. With `NS(=O)(=O)c1cc2c(cc1Cl)N=C(CSCc1ccccc1)NS2(=O)=O` [BENZTHIAZIDE] the “Bacterial Biotransformation” value was “Compound NOT metabolized”.

Conditions: bacteroides intestinalis, 12 h, 2 µM
Description: The drug is tested on Bacteroides intestinalis strain: DSM17393 for biotransformation. The drug concentrations were measured before and after a 12-h incubation by liquid-chromatography-coupled mass spectrometry (LC–MS)
With `CNC(=C[N+](=O)[O-])NCCSCc1csc(CN(C)C)n1` [NIZATIDINE] the “Bacterial Biotransformation” value was “Compound metabolized”. In the case of `COc1ccc2c(c1OC)C(=O)O[C@@H]2[C@H]1c2c(cc3c(c2OC)OCO3)CCN1C` [NOSCAPINE], the “Bacterial Biotransformation” value is reported as “Compound metabolized”. In the case of `NS(=O)(=O)c1cc2c(cc1Cl)N=C(CSCc1ccccc1)NS2(=O)=O` [BENZTHIAZIDE], the “Bacterial Biotransformation” value is reported as “Compound NOT metabolized”.

Conditions: bacteroides thetaiotaomicron, 12 h, 2 µM
Description: The drug is tested on Bacteroides thetaiotaomicron strain: 3731 for biotransformation. The drug concentrations were measured before and after a 12-h incubation by liquid-chromatography-coupled mass spectrometry (LC–MS)
For `CNC(=C[N+](=O)[O-])NCCSCc1csc(CN(C)C)n1` [NIZATIDINE], the “Bacterial Biotransformation” value was “Compound NOT metabolized”. For `NS(=O)(=O)c1cc2c(cc1Cl)N=C(CSCc1ccccc1)NS2(=O)=O` [BENZTHIAZIDE], the “Bacterial Biotransformation” value was “Compound NOT metabolized”.

Conditions: parabacteroides distasonis, 12 h, 2 µM
Description: The drug is tested on Parabacteroides distasonis strain: ATCC8503 for biotransformation. The drug concentrations were measured before and after a 12-h incubation by liquid-chromatography-coupled mass spectrometry (LC–MS)
With `CNC(=C[N+](=O)[O-])NCCSCc1csc(CN(C)C)n1` [NIZATIDINE] the “Bacterial Biotransformation” value was “Compound metabolized”. With `COc1ccc2c(c1OC)C(=O)O[C@@H]2[C@H]1c2c(cc3c(c2OC)OCO3)CCN1C` [NOSCAPINE] the “Bacterial Biotransformation” value was “Compound metabolized”. For `NS(=O)(=O)c1cc2c(cc1Cl)N=C(CSCc1ccccc1)NS2(=O)=O` [BENZTHIAZIDE], the “Bacterial Biotransformation” value was “Compound NOT metabolized”.

Conditions: anaerostipes sp., 12 h, 2 µM
Description: The drug is tested on Anaerostipes sp. strain: fecal isolate for biotransformation. The drug concentrations were measured before and after a 12-h incubation by liquid-chromatography-coupled mass spectrometry (LC–MS)
In the case of `CNC(=C[N+](=O)[O-])NCCSCc1csc(CN(C)C)n1` [NIZATIDINE], the “Bacterial Biotransformation” value is reported as “Compound metabolized”. For `COc1ccc2c(c1OC)C(=O)O[C@@H]2[C@H]1c2c(cc3c(c2OC)OCO3)CCN1C` [NOSCAPINE], the “Bacterial Biotransformation” value was “Compound metabolized”. For `NS(=O)(=O)c1cc2c(cc1Cl)N=C(CSCc1ccccc1)NS2(=O)=O` [BENZTHIAZIDE], the “Bacterial Biotransformation” value was “Compound NOT metabolized”.
